Data taken from patent US9125930B2, “EGFR aptamer inhibitor for use in therapy and diagnosis” (CONSIGLIO NAZIONALE DELLE RICERCHE, priority 2010, dated 2015).

Experiments:
[1] = test system: A549 cells; assay: Binding of [32P]-labeled aptamer on A549 cells; design: species or system human
Description: (§1) Binding experiments were performed with 5′-[^32P]-labeled RNA. For labeling 2′-F-Py RNAs were 5′-end dephosphorylated using bacterial alcaline phosphatase (Invitrogen, Carlsbad, Calif.) before [^32P]-5′-end-labeled using T4 kinase (Invitrogen) and γ-[^32P]-ATP (6×10^3 Ci/mmol, GE Healthcare Bio-Sciences, Uppsala, Sweden) according to the supplier's instructions.
(§2) For binding experiments on cells, 3.5×10^4 cells were plated in 24-well plates in triplicate and were incubated with CL4 42-81 aptamer the scrambled sequence used as a negative control at 100 nM concentration in 200 μl of DMEM serum free for 20 min at RT in the presence of 100 μg/ml polyinosine as a nonspecific competitor (Sigma, St. Louis, Mo.). After five washings with 500 μl DMEM, bound sequences were recovered in 300 μl of SDS 1%, and the amount of radioactivity recovered was counted.

[2] = test system: NIH3T3 cells; assay: Binding on parental NIH3T3 cells; design: species or system mouse; conditions: [32P]-labeled aptamer at 100 nM; relative to scrambled aptamer
Description: Human NSCLC A549, epidermoid carcinoma A431, glioma U87MG and T98G, breast SKBr3, MCF7 and T47D and mouse fibroblast NIH3T3 (all from American Type Culture Collection, Manassas, Va.) cells were grown in Dulbecco's modified Eagle medium (DMEM) supplemented with 10% fetal bovine serum (FBS) and 2 mM L-glutamine (Invitrogen, Carlsbad, Calif.). NIH3T3 cells stably transfected with human EGFR (NIH/EGFR) were grown in DMEM with 10% FBS and 2 mM L-glutamine supplemented with 50 μg/ml Gentamycin.
as §1, §2

[3] = test system: glioma U87MG; assay: Binding on U87MG cells; design: species or system human; conditions: no or very low expression of EGFR; 100 nM
Description: as §1, §2

[4] = test system: breast MCF7; assay: Binding on MCF7 cells; design: species or system human; conditions: no or very low expression of EGFR; 100 nM
Description: as §1, §2

[5] = test system: breast T47D; assay: Binding on T47D cells; design: species or system human; conditions: no or very low expression of EGFR; 100 nM
Description: as §1, §2

[6] = test system: glioma T98G; assay: Binding on T98G cells; design: species or system human; conditions: high level of EGFR; 100 nM
Description: as §1, §2

[7] = test system: A549 cells; assay: Cell viability assay, A549 cells; format: cell-based, human
Description: Cell viability was assessed with CellTiter 96® AQueous One Solution Cell Proliferation Assay (Promega, Madison, Wis.) according to according to the supplier's instructions. […] The optical density (OD) was measured using a Multilabel Counter (Bio-Rad) at a wavelength of 490 nm and cell viability was calculated by the following formula: Cell viability (%)=(OD treated cells/OD control cells)×100%. FACS Analysis

[8] = test system: A549 cells; assay: Apoptosis assay by PI staining and FACS; format: cell-based, human; design: dose or concentration left out as unconfirmed
Description: For apoptosis assay, DNA content analysis was performed by staining with propidium iodide (PI) and analyzing cells by flow cytometry (FACS).
[…] Cells were incubated with 2 μg/ml propidium iodide (PI, Sigma, St. Louis, Mo.) for 30 min at 4° C. and recovered. The relative proportion of cells with DNA content indicative of apoptosis (ipoploid) was determined by FACS.

[9] = test system: caspase-3; assay: Caspase-3 activity assay in A549 cells; format: cell-based, human; conditions: A549, 200 nM, 6 hs
Description: (§3) A549 cells were treated with 200 nM CL4 42-81 or the scrambled aptamer for 6 hs. To determine caspase activity cell lysates (50 μg) were incubated at 37° C. for 1 h with 50 μM of a specific fluorometric substrate (Ac-DEVD-AFC for caspase-3, Ac-IETD-AFC for caspase-8, both from Alexis Bichemicals, San Diego, Calif.). Cleavage of the fluorometric substrate were determined using a Fluorometer, with excitation at 400 nm and emission at 505 nm wavelengths.

[10] = test system: caspase-8; assay: Caspase-8 activity assay in A549 cells; format: cell-based, human; conditions: A549, 200 nM, 6 hs
Description: as §3

[11] = test system: A549 tumors; assay: Tumor growth in A549 mouse xenograft; format: in vivo; conditions: day 16, with respect to CL4 scrambled control, 200 pmols intratumoral three times a week
Description: The volume injections are small enough to preclude the compounds being forced inside the cells due to a nonspecific high-pressure injection. Tumors were measured every 3 days with calipers in three dimensions. The following formula was used to calculate tumor volume: VT=(W×L×H)×0.5236 (W, the shortest dimension; L, the longest dimension; H, the intermediate dimension). The growth curves are plotted as the means tumor volume±s.e.m. Statistical analysis of tumor size data was conducted using a one-way ANOVA. A P-value of 0.05 or less was considered to indicate a significant difference. […]
(§4) Athymic CD-1 nude mice (nu/nu) were housed in a highly controlled microbiological environment, thus to guarantee specific pathogen free conditions. Mice were injected subcutaneously with 3×10^6 (in 100 μl) in vitro propagated A549. Sixteen non-necrotic tumors of about 0.5 cm in diameter were randomly divided into two groups of eight mice as follows: group 1, CL4 scrambled-treated; group 2, CL4 42-81-treated. Aptamers (200 pmols/injection) were injected intra-tumorally in 100-1 μl volumes three times a week for 16 days. Tumors were measured every 2 days.

[12] = test system: caspase-8; assay: Caspase-8 in A549 xenograft tumor lysates; format: in vivo, mouse; conditions: pooled tumor lysates
Description: (§5) FIG. 8. (A) A549 cells (2,000 cells/well in 24-well plates) were treated for 24 h or 48 h with CL4 42-81 or CL4 scrambled (200 nM-final concentration) and proliferation was determined by [^3H]-thymidine incorporation. Vertical bars indicate the standard deviation values. […] Day 0 marks the first day of injection. Data are shown as means±s.e.m. (n=8 tumors). (C) Three tumors per group selected randomly were excised, lysed, and the pooled lysates were immunoblotted with anti-pEGFR, anti-EGFR, anti-caspase-3, anti-cleaved caspase-8 and anti-αtubulin antibodies, as indicated. Molecular weights of indicated proteins are reported. (D) Cell lysates as in (C) were analyzed by caspase-3 fluorimetric assays.
as §4

[13] = Half life of the aptamer in serum; format: in vitro ADME; conditions: in 10% serum
[14] = biological target: EGFR (Homo sapiens, UniProt P00533); assay: Immunoblot of pEGFR in A549 xenograft tumor lysates; format: in vivo, mouse; design: from tissue; host or cells: A549 xenograft tumours excised from athymic CD-1 nude mice; conditions: pooled tumor lysates
Description: as §5, §4

CL4 42-81: 2′-fluoropyrimidine nuclease-resistant RNA aptamer of 39 nt: 5′ GCCUUAGUAACGUGCUUUGAUGUCGAUUCGACAGGAGGC 3′ (SEQ ID No. 1) (2'-fluoro at CU, RNA at AG, backbone not given here)
binding on A549 cells ([1]; EGFR-positive, 100 nM): binds | Kd ([1]; binding to A549 target cells): 38 nM | binding on parental NIH3T3 cells [2]: does not binding | binding on U87MG cells [3]: does not bind | binding on MCF7 cells [4]: does not bind | binding on T47D cells [5]: does not bind | binding on T98G cells [6]: binds | sensitivity of A549 cell viability ([7]; 200 nM-final concentration, 24 h): highly sensitive | cell viability ([7]; A549, 24 hs, 200 nM final concentration, relative to untreated cells set to 100%): about 60% | effectiveness on A549 cell viability in combination with gefitinib ([7]; CL4 42-81 100 and 200 nM with 1 μM gefitinib, 24 h): not improved | percentage of apoptotic cells (sub-G1 peak) ([8]; A549, 24 hs): about 30% | percentage of apoptotic cells (sub-G1 peak) ([8]; A549, 48 hs): 40% | activation of caspase-3 [9]: strongly induce activation | activation of caspase-8 [10]: strongly induce activation | inhibition of tumor growth (tumor volume) [11]: 57% | caspase-8 activation in xenograft tumors [12]: activates | half life of the aptamer [13]: 6 h | extent of EGFR tyrosine phosphorylation in xenograft tumors [14]: decreases
